These results are taken from PubChem BioAssay (NCI).

The structures appear in SMILES notation.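 Five compound concentrations were applied to cells in 96-well plates for 48 hours; endpoints were derived by simple linear interpolation of the resulting dose-response curve. TGI: total growth inhibition.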

Some test systems named below: RXF 393 renal; XF 498 CNS; HS 578T breast; UACC-257 melanoma; PC-3 prostate; SNB-78 CNS; HOP-18 NSCLC; LXFL 529 NSCLC; MDA-MB-435; DMS 273 small cell lung; EKVX NSCLC; SN12C renal; DMS 114 small cell lung; KM20L2 colon; DLD-1 colon; SK-MEL-28 melanoma; NCI-H522 lung; MDA-N; M19-MEL melanoma; RXF-631 renal.
Common to all, as to assay: growth of human tumour cells (NCI), 48 h

Take `CCc1c2cc(OC)c(OC)cc2cc2c3cc(OC)c(OC)cc3cc[n+]12` (tested in a mixture with another compound): the TGI in the experiment on RXF 393 renal was above 100 µM; in the experiment with XF 498 CNS, 33.6 µM; in the experiment on HS 578T breast, above 89.1 µM; with UACC-257 melanoma, 59.3 µM; in the experiment with PC-3 prostate, above 83.1 µM; in the experiment with SNB-78 CNS it was above 100 µM. Also, the TGI in the experiment on HOP-18 NSCLC is above 100 µM; with LXFL 529 NSCLC it was above 76.3 µM; with MDA-MB-435, 25.5 µM; with DMS 273 small cell lung, above 100 µM; in the experiment with EKVX NSCLC it was above 88 µM; in the experiment on SN12C renal it was above 79.9 µM. In addition, the TGI with DMS 114 small cell lung was 63.1 µM; in the experiment with KM20L2 colon, above 100 µM; with DLD-1 colon, above 100 µM; in the experiment on SK-MEL-28 melanoma it was above 79.4 µM; in the experiment with NCI-H522 lung, 34.3 µM; in the experiment with MDA-N, above 36.5 µM. The TGI with M19-MEL melanoma is above 92.7 µM.

For the compound `N#C/C(c1nc2ccccc2[nH]1)=c1\s/c(=C(/N)O)c(=N)n1-c1ccccc1`, the TGI in the experiment on XF 498 CNS, with UACC-257 melanoma, in the experiment with SNB-78 CNS, with LXFL 529 NSCLC, in the experiment on DMS 273 small cell lung and in the experiment with EKVX NSCLC was above 100 µM throughout. The TGI in the experiment on SN12C renal, in the experiment on DMS 114 small cell lung, with KM20L2 colon, with DLD-1 colon, in the experiment with SK-MEL-28 melanoma and in the experiment with NCI-H522 lung was above 100 µM each time. Also, in the experiment with M19-MEL melanoma, the TGI was above 100 µM.

In the case of `COc1ccc2c3c([nH]c(=O)c2c1C(=O)O)-c1ccccc1CC3`, the TGI in the experiment with RXF 393 renal, in the experiment with XF 498 CNS, in the experiment on SNB-78 CNS, in the experiment on LXFL 529 NSCLC, in the experiment on DMS 273 small cell lung and in the experiment on EKVX NSCLC was above 100 µM in each case. The TGI in the experiment on SN12C renal, in the experiment with DMS 114 small cell lung, in the experiment on KM20L2 colon, with DLD-1 colon, in the experiment on RXF-631 renal and with SK-MEL-28 melanoma was above 100 µM throughout. The compound also showed a TGI in the experiment with NCI-H522 lung above 100 µM.

In the case of `COc1cccc2c1C1(O)C2CCCCCCCCCC12OCCCO2` (configuration not stated), the TGI in the experiment with RXF 393 renal, with HS 578T breast, in the experiment with UACC-257 melanoma, in the experiment with PC-3 prostate, in the experiment with SNB-78 CNS and in the experiment with HOP-18 NSCLC was above 100 µM throughout. Besides, the TGI with LXFL 529 NSCLC, in the experiment with MDA-MB-435, in the experiment with DMS 273 small cell lung, in the experiment on SN12C renal, in the experiment with DMS 114 small cell lung and with KM20L2 colon was above 100 µM each time. Moreover, the TGI in the experiment on DLD-1 colon was above 100 µM; with SK-MEL-28 melanoma, above 100 µM; in the experiment with NCI-H522 lung it was above 96.5 µM; in the experiment with MDA-N it was above 100 µM.

Consider `CC(C)(C)C1CCC2c3c([nH]c4ncccc34)C3C(=O)N(c4ccccc4)C(=O)C3C2C1` (configuration not stated), for which the TGI in the experiment on RXF 393 renal, in the experiment on XF 498 CNS, with UACC-257 melanoma, with SNB-78 CNS, with HOP-18 NSCLC and with LXFL 529 NSCLC was above 100 µM in each case. Further, the TGI in the experiment with DMS 273 small cell lung, in the experiment with EKVX NSCLC, in the experiment with SN12C renal, with DMS 114 small cell lung, with KM20L2 colon and in the experiment with DLD-1 colon was above 100 µM each time. The TGI in the experiment with SK-MEL-28 melanoma, in the experiment with NCI-H522 lung and in the experiment on M19-MEL melanoma was above 100 µM each time.

For the compound `O=C(c1ccco1)N(C(=S)N1CCN(c2ccccc2)CC1)C1CCCCC1`, the TGI in the experiment with RXF 393 renal, with UACC-257 melanoma, with SNB-78 CNS, with HOP-18 NSCLC, with LXFL 529 NSCLC and in the experiment on DMS 273 small cell lung was above 100 µM throughout. For the same compound, the TGI in the experiment with SN12C renal, in the experiment with DMS 114 small cell lung, with KM20L2 colon, in the experiment on DLD-1 colon, in the experiment with NCI-H522 lung and in the experiment with M19-MEL melanoma was above 100 µM throughout.

Turning to `[N-]=[N+]=NC1(c2ccccc2)C(=O)C(Cl)=C(c2ccccc2)N(c2ccccc2)C1=O` (configuration not stated), the TGI in the experiment with UACC-257 melanoma, with SNB-78 CNS, in the experiment with HOP-18 NSCLC, with LXFL 529 NSCLC, with DMS 273 small cell lung and in the experiment with EKVX NSCLC was above 100 µM throughout. Also, the TGI in the experiment with SN12C renal, with DMS 114 small cell lung, with KM20L2 colon, in the experiment with DLD-1 colon, in the experiment with SK-MEL-28 melanoma and in the experiment with NCI-H522 lung was above 100 µM each time. In addition, the TGI in the experiment with M19-MEL melanoma was above 100 µM.

As to `O=c1[nH]c2cc([N+](=O)[O-])ccc2nc1/C(=N/Nc1ccccc1)C(O)c1ccco1` (configuration not stated), the TGI with RXF 393 renal, in the experiment on XF 498 CNS, in the experiment with UACC-257 melanoma, in the experiment on LXFL 529 NSCLC, with DMS 273 small cell lung and with EKVX NSCLC was above 100 µM throughout. Besides, the TGI in the experiment with SN12C renal, in the experiment with DMS 114 small cell lung, in the experiment with KM20L2 colon, in the experiment on DLD-1 colon, in the experiment on RXF-631 renal and in the experiment on NCI-H522 lung was above 100 µM in each case. In the experiment with M19-MEL melanoma, this compound gave a TGI above 100 µM.

For the compound `COc1cc2c(oc(=O)c3c4occc4cc(OC)c23)c2cccc(OCc3ccccc3)c12`, the TGI in the experiment on RXF 393 renal, in the experiment with XF 498 CNS, with UACC-257 melanoma, in the experiment on SNB-78 CNS, with HOP-18 NSCLC and with LXFL 529 NSCLC was above 100 µM in each case. Further, the TGI with DMS 273 small cell lung, with EKVX NSCLC, with SN12C renal, in the experiment on DMS 114 small cell lung, in the experiment on KM20L2 colon and with DLD-1 colon was above 100 µM throughout. The TGI with SK-MEL-28 melanoma, in the experiment with NCI-H522 lung and in the experiment on M19-MEL melanoma was above 100 µM in each case.

Regarding `CCOC(=O)C(C)Sc1nnc(COc2ccc(Cl)cc2)n1-c1ccccc1` (configuration not stated), the TGI with RXF 393 renal was 41.7 µM; with UACC-257 melanoma, 47.3 µM; in the experiment with SNB-78 CNS, 95.2 µM; in the experiment with HOP-18 NSCLC, above 100 µM; with LXFL 529 NSCLC it was 30.4 µM; in the experiment with DMS 273 small cell lung it was 29.9 µM. Moreover, the TGI in the experiment with EKVX NSCLC is 83.5 µM; with SN12C renal, 32.9 µM; in the experiment on KM20L2 colon, 33 µM; in the experiment on DLD-1 colon it was 35.1 µM; in the experiment on SK-MEL-28 melanoma, 49.2 µM; with NCI-H522 lung it was 5.16 µM. Further, the TGI in the experiment on M19-MEL melanoma came out at 34.9 µM.
